We go through four compounds from US12570687B2, “Triterpenoid compounds, pharmaceutical compositions thereof, and their use for treating a nuclear receptor subfamily 4 group a member 1-mediated disease” (NUCMITO PHARMACEUTICALS COMPANY LIMITED, priority 2019, dated 2026).

A word on the inhibition: it is the percentage by which the read-out fell short of the control. As a reminder, the Kd is the concentration at which binding is half-saturated.

Molecules are shown by their SMILES.

In one assay the test system is SW620 (colon cancer). Description: MTT antiproliferative assay, SW620. It counts as cell-based. As to conditions: Homo sapiens, SW-620, SW620, 10 μM, 48 or 72 h, read-out: inhibition of cell growth, SW620. The procedure, abridged:
(§1)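 Growth inhibition is graded in bands of percent inhibition at 10 μM, taken from MTT read-out at 490 nm and normalised to vehicle-treated wells. Exposure runs 48 or 72 h at 37° C.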
(In general: Tetrazolium assays rely on reduction of a dye to a coloured formazan, in cell work by metabolically active cells.)

A further assay concerns the target Nur77-LBD (Homo sapiens, UniProt P22736). As to the kind of experiment: Surface plasmon resonance (SPR) binding to Nur77-LBD. The settings on record: BIAcore T200, 25° C., 1:1 Langmuir binding mode, read-out: Kd when binding to the Nur77-LBD protein. The procedure: A test compound was analyzed for its binding kinetics with Nur77-LBD at 25° C. on a BIAcore T200 machine with CM5 chips. PBSP was used for all measurements. For SPR measurements, Nur77-LBD proteins were purified. A blank channel was used as negative control. About 10,000 response units of Nur77-LBD were immobilized on the chips. When the data collection was finished in each cycle, the sensor surface was regenerated with glycine-HCl at pH 2.5. A serial of concentrations ranging from 0.15 to 5.0 μM of the test compound was used. Sensograms were fit globally with BIAcore T200 analysis using 1:1 Langmuir binding mode.
A general note: Surface plasmon resonance follows binding to a sensor surface in real time, without labels.

Assay [1] deals with A549 (lung adenocarcinoma). Description: MTT antiproliferative assay, A549. It counts as cell-based. The settings on record: Homo sapiens, A549, 10 μM, 48 or 72 h, read-out: inhibition of cell growth, A549. The method, boiled down: as §1
The subject of another assay is HepG2 (liver cancer). Description: MTT antiproliferative assay, HepG2. It counts as cell-based. As to conditions: Homo sapiens, HepG2, 10 μM, 48 or 72 h, read-out: inhibition of cell growth, HepG2. The method, boiled down: as §1
The next assay deals with HeLa (ovarian cancer). Description: MTT antiproliferative assay, HeLa. In kind it is cell-based. As to conditions: Homo sapiens, 48 or 72 h, read-out: inhibition of cell growth, HELA. The procedure, abridged:
as §1

The subject of assay [2] is A431 (epidermoid carcinoma). As to the kind of experiment: MTT antiproliferative assay, A431. It counts as cell-based. The settings on record: Homo sapiens, A-431, A431, 10 μM, 48 or 72 h, read-out: inhibition of cell growth, A431. The method, boiled down: as §1
Assay [3] has as its system MDA-MB-231 (breast cancer). As to the kind of experiment: MTT antiproliferative assay, MDA-MB-231. As to conditions: Homo sapiens, MDA-MB-231, 10 μM, 48 or 72 h, read-out: inhibition of cell growth, MDA-MB-231. In kind it is cell-based. The procedure, abridged:
as §1

The subject of assay [4] is A375 (malignant melanoma). As to the kind of experiment: MTT antiproliferative assay, A375. It counts as cell-based. As to conditions: Homo sapiens, A-375, A375, 10 μM, 48 or 72 h, read-out: inhibition of cell growth, A375. The procedure, abridged: as §1

Nur77-LBD, sequence (P22736 360-595 limits assumed, species assumed): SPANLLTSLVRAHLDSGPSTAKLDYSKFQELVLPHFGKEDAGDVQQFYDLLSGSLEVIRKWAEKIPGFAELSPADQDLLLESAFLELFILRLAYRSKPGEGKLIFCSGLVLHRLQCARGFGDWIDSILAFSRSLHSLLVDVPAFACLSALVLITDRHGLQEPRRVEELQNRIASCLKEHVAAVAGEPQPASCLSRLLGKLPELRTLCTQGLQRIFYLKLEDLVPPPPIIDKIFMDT

Regarding `CO[C@]1(C)C(=O)C(=O)C=C2C1=CC=C1[C@@]2(C)CC[C@@]2(C)[C@@H]3C[C@](C)(C(=O)O)CC[C@]3(C)CC[C@]12C` [Compound A1, (2R,4aS,6aS,9S,12bR,14aS,14bR)-9-methoxy-2,4a,6a,9,12b,14a-hexamethyl-10,11-dioxo-1,2,3,4,4a,5,6,6a,9,10,11,12b,13,14,14a,14b-hexadecahydropicene-2-carboxylic acid], the inhibition at 10 µM in the assay with SW620 (colon cancer) is 50 to 80%; in assay [1] it was 30 to 50%; with HepG2 (liver cancer), 50 to 80%; in the assay on HeLa (ovarian cancer), at least 80%; in assay [2] it was 50 to 80%; in assay [3], 50 to 80%. Moreover, the inhibition at 10 µM in assay [4] is 30 to 50%. Moreover, on Nur77-LBD, the Kd was determined as 0.39 µM.
`CNC(=O)[C@]1(C)CC[C@]2(C)CC[C@]3(C)C4=CC=C5C(=CC(=O)C(=O)[C@@]5(C)OC)[C@]4(C)CC[C@@]3(C)[C@@H]2C1` [Compound A7, (2R,4aS,6aS,9S,12bR,14aS,14bR)-9-methoxy-N,2,4a,6a,9,12b,14a-heptamethyl-10,11-dioxo-1,2,3,4,4a,5,6,6a,9,10,11,12b,13,14,14a,14b-hexadecahydropicene-2-carboxamide]: the inhibition at 10 µM is 30 to 50% in the assay with SW620 (colon cancer); 30 to 50% in assay [1]; 50 to 80% in the assay with HepG2 (liver cancer); at least 80% with HeLa (ovarian cancer); 50 to 80% in assay [2]; at least 80% in assay [3]. Besides, the inhibition at 10 µM in assay [4] was in the range of 50 to 80%. Also, at Nur77-LBD, the Kd was determined as 0.56 µM.
As for `CO[C@]1(C)C(=O)C(=O)C=C2C1=CC=C1[C@@]2(C)CC[C@@]2(C)[C@@H]3C[C@](C)(C(N)=O)CC[C@]3(C)CC[C@]12C` [Compound A9, (2R,4aS,6aS,9S,12bR,14aS,14bR)-9-methoxy-2,4a,6a,9,12b,14a-hexamethyl-10,11-dioxo-1,2,3,4,4a,5,6,6a,9,10,11,12b,13,14,14a,14b-hexadecahydropicene-2-carboxamide], the inhibition at 10 µM in the assay on SW620 (colon cancer) was 50 to 80%; in assay [1], 30 to 50%; with HepG2 (liver cancer), 50 to 80%; in the assay with HeLa (ovarian cancer), at least 80%; in assay [2] it was 50 to 80%; in assay [3], at least 80%. Besides, the inhibition at 10 µM in assay [4] fell in the range of 30 to 50%. Besides, the Kd at Nur77-LBD was 0.89 µM.
As to `CO[C@@]1(C)C2=CC=C3[C@@](C)(CC[C@@]4(C)[C@@H]5C[C@](C)(C#N)CC[C@]5(C)CC[C@]34C)C2=CC(=O)[C@@H]1O` [Compound A62, (2R,4aS,6aS,9S,10R,12bR,14aS,14bR)-10-hydroxy-9-methoxy-2,4a,6a,9,12b,14a-hexamethyl-11-oxo-1,2,3,4,4a,5,6,6a,9,10,11,12b,13,14,14a,14b-hexadecahydropicene-2-carbonitrile], the inhibition at 10 µM in the assay on SW620 (colon cancer) was at least 80%; in assay [1] it was 30 to 50%; with HepG2 (liver cancer), 30 to 50%; in the assay with HeLa (ovarian cancer), below 30%; in assay [2] it was at least 80%; in assay [3], 30 to 50%. Further, the inhibition at 10 µM in assay [4] was 30 to 50%.
